Values joined by “and” are separate entries in the source; they are usually repeats but may differ in a detail not shown here. Equal entries are not always repeated.
Experiments:
rNTS2 receptor [1] = target: T1, rNTS2 receptor (Rattus norvegicus, UniProt Q63384); test: 125I-NT competitive binding assay, whole CHO-kl cells over-expressing rNTS2; conditions: competition with 125I-NT; ± SEM; read-out: 125I-NT Binding NTS2 Ki
T1 construct: expressed in transfected cells
T1 sequence (Q63384 1-416): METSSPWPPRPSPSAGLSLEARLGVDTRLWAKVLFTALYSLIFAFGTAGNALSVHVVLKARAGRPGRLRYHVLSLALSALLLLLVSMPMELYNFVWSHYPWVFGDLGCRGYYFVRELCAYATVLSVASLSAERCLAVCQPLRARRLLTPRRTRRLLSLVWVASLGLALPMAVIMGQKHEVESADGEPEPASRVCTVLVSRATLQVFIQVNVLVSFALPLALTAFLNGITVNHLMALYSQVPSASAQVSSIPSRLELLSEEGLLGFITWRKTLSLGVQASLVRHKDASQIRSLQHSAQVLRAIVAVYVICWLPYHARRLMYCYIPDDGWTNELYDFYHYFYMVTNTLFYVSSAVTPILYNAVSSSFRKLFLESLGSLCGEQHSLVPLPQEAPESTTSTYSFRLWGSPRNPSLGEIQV
Method: (§1) The binding affinities of the test compounds for the rNTS1 and rNTS2 receptors listed in Tables 1 through 4 were determined using previously reported competitive binding assays^49. […] The cells used in the binding assay were CHO-kl cells (American Type Culture Collection) engineered to over-express either the rNTS1 or rNTS2 receptor. Measures of functional agonism and antagonism were obtained by measuring changes in intensity of a calcium-sensitive fluorescent dye as an indirect measure of changes in internal calcium concentrations. These measurements were performed using a FLIPR Tetra (NTS2) or a FlexStation II plate reader for NTS1 (Molecular Devices) and were analyzed using GraphPad Prism software.
Briefly, cells were plated at 100,000 cells/well in 24-well plates in complete DMEM/F12 medium supplemented with 10% fetal bovine serum, 100 units of penicillin/mL, 100 μg of streptomycin/mL, 0.1 mg/mL of normocin, and 250 μg/mL geneticin. Cells were incubated at 37° C. with 5% CO2 and 95% humidity for 48 hrs. […] Cells were washed twice in Earle's buffer, extracted in 1 ml 0.1N NaOH and counted in a Packard Cobra II Gamma Counter for 1 minute.
(§2) To determine EC50, IC50, and Ke values, data were fit to a three-parameter logistic equation using GraphPad Prism software. Ki values for radioligand binding assays were determined from ICso values using the equation of Cheng and Prusoff. All data are from at least three independent experiments run in duplicate wells.

rNTS1 receptor = target: T2, rNTS1 receptor (Rattus norvegicus, UniProt P20789); test: Calcium mobilization assay for NTS1 receptor (FLIPR assay, FlexStation II); type: cell-based; conditions: for Kb: read-out: NTS1 Ke; for activity in NTS1 FLIPR assay: agonist and antagonist mode versus NT
T2 construct: expressed in transfected cells
T2 sequence (P20789 whole entry): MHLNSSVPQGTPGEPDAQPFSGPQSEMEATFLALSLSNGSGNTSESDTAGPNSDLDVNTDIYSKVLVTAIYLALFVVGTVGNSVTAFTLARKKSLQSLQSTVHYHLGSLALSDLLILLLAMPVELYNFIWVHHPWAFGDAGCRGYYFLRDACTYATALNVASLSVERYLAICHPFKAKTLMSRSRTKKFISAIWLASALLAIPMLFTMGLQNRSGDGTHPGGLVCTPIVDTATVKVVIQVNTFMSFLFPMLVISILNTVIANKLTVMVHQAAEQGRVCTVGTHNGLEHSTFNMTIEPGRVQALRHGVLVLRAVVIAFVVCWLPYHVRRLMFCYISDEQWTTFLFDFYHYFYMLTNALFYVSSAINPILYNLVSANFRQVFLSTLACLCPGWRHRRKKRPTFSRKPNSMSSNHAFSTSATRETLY
Method: as §1
CHO-kl-rNTS1 cells were maintained in DMEM/F12 medium supplemented with 10% fetal bovine serum (Gibco), 100 U/ml penicillin/100 ug/ml streptomycin, 100 ug/ml normocin (Invivogen), and 250 ug/ml geneticin. For calcium mobilization assays, cells were plated at 30,000 cells/well in black, clear-bottom 96-well plates 24 hrs before the assay and incubated at 37° C., 5% CO2. Prior to the assay, Calcium 5 dye (Molecular Devices) was reconstituted according to manufacturer instructions. The reconstituted dye was diluted 1:40 in assay buffer (lx HBSS, 20 mM HEPES, and 2.5 mM Probenicid (Sigma), pH 7.4). Growth media was removed and 200 ul of this diluted dye was added to each well. Plates were incubated for 45 min at 37° C., 5% CO2 after dye addition. […] Full-log serial dilutions of the test compounds were made at 10× the desired final concentration in 1% DMSO assay buffer and warmed to 37° C. After the pre-treatment incubation, fluorescence intensity was measured on a FlexStation II fluorometric imaging plate reader (Molecular Devices). Relative fluorescence units (RFU) were measured before (20 readings) and after (40 readings) the agonist compound addition for a total 60 second read time (Excitation=485 nm, Emission=525 nm, cutoff=515 nm). For antagonist assays, cells were treated with Calcium dye for 45 min at 37° C., 5% CO2 as with the agonist assays. Then the test antagonist compounds were added in 1% DMSO in assay buffer and the plate was incubated for 15 min at 37° C., 5% CO2.
as §2

rNTS2 receptor [2] = target: T1, rNTS2 receptor; test: Calcium mobilization assay for NTS2 receptor (FLIPR Tetra); type: cell-based; conditions: for NTS2 Emax % of 5b / EC50: FLIPR assay, ± SEM; for NTS2 Emax % of 5b: calcium release relative to 5b; for EC50: compound induced calcium release, CHO-kl-rNTS2 cells; for activity in NTS2 FLIPR assay: calcium release
Method: as §1
CHO-kl-rNTS2 cells were maintained in DMEM/F12 supplemented with 10% FBS, pen/strep, 100 μg/ml normocin, and 400 μg/ml geneticin. For calcium mobilization assays, cells were plated at 25,000 cells/well in black, clear-bottom 96-well plates 24 hrs before the assay and incubated at 37° C., 5% CO2. 100 μl reconstituted Calcium 5 dye (Molecular Devices, diluted 1:20 in assay buffer (1×HBSS, 20 mM HEPES, 2.5 mM Probenicid, pH 7.4)) was added per well and plates were incubated for 45 min at 37° C., 5% CO2. […] Full-log serial dilutions of the test compounds were made at 10× the desired final concentration in 1% DMSO assay buffer and warmed to 37° C. After the pre-treatment incubation, fluorescence intensity was measured on a FLIPR Tetra fluorometric imaging plate reader (Molecular Devices). Relative Fluorescence Units (RFUs) were measured every second for 100 seconds (14 readings before compound addition to establish baseline fluorescence, 85 after) Exposure time 0.53 s, Gain=2000, Excitation intensity=30%, Gate open=10%. For antagonist assays, 1/10 volume of 10×concentration of the test compound dilutions in 10% DMSO in assay buffer was added to cells in lieu of the 10% DMSO only in assay buffer for the pre-treatment.
as §2

[3] = antagonism of NT induced calcium release, ± SEM

NTS1 Ke (rNTS1 receptor; [3]) | EC80 of 5b (rNTS2 receptor [2]; final concentration used in IC50 assays) | Compound | Ki (rNTS2 receptor [1]) | Kb (rNTS1 receptor; [3]) | NTS2 Emax % of 5b (rNTS2 receptor [2]) | EC50 (rNTS2 receptor [2]) | activity in NTS1 FLIPR assay (rNTS1 receptor) | activity in NTS2 FLIPR assay (rNTS2 receptor [2])
 |  | COc1ccccc1-c1cc(C(=O)NC2(C(=O)O)CCCCC2)nn1-c1cccc2ccccc12 [27b, 1-({[5-(2-Methoxyphenyl)-1-naphthalen-1-yl-1H-pyrazol-3-yl]carbonyl}amino)cyclohexane-carboxylic Acid] | 694 ± 178 nM | 7380 ± 1130 nM | 18 % of 5b and 18 ± 2 % of 5b | 108 ± 8 nM |  | 
 |  | COc1cccc(OC)c1-c1cc(C(=O)NC2(C(=O)O)CCCC2)nn1-c1ccnc2cc(Cl)ccc12 [22b, 1-({[1-(7-Chloroquinolin-4-yl)-5-(2,6-dimethoxyphenyl)-1H-pyrazol-3-yl]carbonyl}amino)cyclo-pentanecarboxylic Acid] | 102 nM | 222 ± 14 nM | 76 ± 4 % of 5b | 20 ± 4 nM |  | 
 |  | COc1ccccc1-c1cc(C(=O)N[C@H](C(=O)O)C2CCCCC2)nn1-c1ccnc2cc(Cl)ccc12 [17b, (2S)-({[1-(7-chloroquinolin-4-yl)-5-(2-methoxyphenyl)-1H-pyrazol-3-yl]carbonyl}amino)(cyclohexyl) ethanoic acid] | 1420 ± 468 nM | 1680 ± 527 nM | 25 ± 2 % of 5b | 258 ± 14 nM |  | 
 |  | C[C@@H]1CN([C@H]2CC[C@](C#N)(c3ccc(F)cc3)CC2)CC[C@]1(C(=O)O)c1ccccc1 [compound 6, Levocabastine, reference compound] | 33 nM |  | 16 % of 5b and 16 ± 3 % of 5b | 28 nM | neither agonist nor antagonist activity | 
1.5 ± 0.6 nM | 73 nM | COc1cccc(OC)c1-c1cc(C(=O)NC2(C(=O)O)C3CC4CC(C3)CC2C4)nn1-c1ccc(C(=O)N(C)CCCN(C)C)cc1C(C)C (centres unmarked) [5b, reference compound] | 6 nM | 1.5 nM | 100 ± 5 % of 5b | 20 nM |  | 
 |  | CCc1c(C(=O)N[C@H](C(=O)O)C2CCCCC2)nn(-c2ccnc3cc(Cl)ccc23)c1-c1c(OC)cccc1OC [19b, (2S)-({[1-(7-Chloroquinolin-4-yl)-5-(2,6-dimethoxyphenyl)-4-ethyl-1H-pyrazol-3-yl]carbonyl}amino)(cyclohexyl)ethanoic Acid] |  |  | 15 % of 5b and 15 ± 1 % of 5b |  |  | 
 |  | O=C(N[C@H](C(=O)O)C1CCCCC1)c1cc(-c2c(F)cccc2F)n(-c2ccnc3cc(Cl)ccc23)n1 [18b, (2S)-({[1-(7-Chloroquinolin-4-yl)-5-(2,6-difluorophenyl)-1H-pyrazol-3-yl]carbonyl}amino) (cyclohexyl)ethanoic Acid] | 1000 ± 227 nM |  | 15 ± 3 % of 5b | 166 ± 3 nM |  | 
 |  | COc1cccc(OC)c1-c1cc(C(=O)NC2(C(=O)O)CCCCC2)nn1-c1ccnc2cc(Cl)ccc12 [21b, 1-({[1-(7-Chloroquinolin-4-yl)-5-(2,6-dimethoxyphenyl)-1H-pyrazol-3-yl]carbonyl}amino)cyclo-hexanecarboxylic Acid] | 151 nM | 157 ± 45 nM | 78 % of 5b and 78 ± 7 % of 5b | 29 ± 2 nM |  | 
 |  | COc1ccccc1-c1cc(C(=O)N[C@H](C(=O)O)C2CCCCC2)nn1-c1cccc2ccccc12 [25b, (2S)-Cyclohexyl({[5-(2-methoxyphenyl)-1-naphthalen-1-yl-1H-pyrazol-3-yl]carbonyl}amino) ethanoic Acid] | 2690 ± 639 nM | 1400 ± 330 nM | 18 ± 2 % of 5b | 229 ± 8 nM |  | 
 |  | COc1cccc(OC)c1-c1cc(C(=O)N[C@H](C(=O)O)C2CCCCC2)nn1-c1ccnc2cc(Cl)ccc12 [14b, (2S)-({[1-(7-Chloroquinolin-4-yl)-5-(2,6-dimethoxyphenyl)-1H-pyrazol-3-yl]carbonyl}amino)-(cyclohexyl)ethanoic Acid] | 644 nM | 23 ± 6 nM | 86 % of 5b and 86 ± 3 % of 5b | 217 ± 19 nM |  | 
 |  | COc1cccc(OC)c1-c1cc(C(=O)NC2C3CC4CC(C3)CC2C4)nn1-c1ccnc2cc(Cl)ccc12 (centres unmarked) [compound 13, 1-(7-chloroquinolin-4-yl)-5-(2,6-dimethoxyphenyl)-N-tricyclo[3.3.1.13,7]dec-2-yl-1H-pyrazole-3-carboxamide] |  |  |  |  | inactive | inactive
 |  | COc1cccc(OC)c1-c1cc(C(=O)NC2(C(=O)O)C3CC4CC(C3)CC2C4)nn1-c1ccc(F)cc1 (centres unmarked) [compound 30, 2-({[5-(2,6-Dimethoxyphenyl)-1-(4-fluorophenyl)-1H-pyrazol-3-yl]carbonyl}amino) tricyclo[3.3.1.13,7]decane-2-carboxylic Acid] | 110 ± 29 nM | 191 ± 47 nM | 34 % of 5b and 34 ± 5 % of 5b | 68 nM |  | 
 |  | COc1ccccc1-c1cc(C(=O)NC2(C(=O)O)CCCCC2)nn1-c1ccnc2cc(Cl)ccc12 [23b, 1-({[1-(7-Chloroquinolin-4-yl)-5-(2-methoxyphenyl)-1H-pyrazol-3-yl]carbonyl}amino)cyclohexane carboxylic Acid] | 533 ± 153 nM | 4550 ± 636 nM | 35 % of 5b and 35 ± 1 % of 5b | 62 ± 9 nM |  | 
 |  | CC[C@H](C)[C@H](NC(=O)[C@H](Cc1ccc(O)cc1)NC(=O)[C@@H]1CCCN1C(=O)[C@H](CCCNC(=N)N)NC(=O)[C@@H](N)CCCNC(=N)N)C(=O)N[C@@H](CC(C)C)C(=O)O [compound 1, Arg-Arg-Pro-Tyr-Ile-Leu, reference compound] |  |  |  |  |  | neither NT nor the NT(8-13) fragment (1) showed any calcium release
 |  | COc1cccc(OC)c1-c1cc(C(=O)NC2(C(=O)O)C3CC4CC(C3)CC2C4)nn1-c1ccnc2cc(Cl)ccc12 (centres unmarked) [5a, Meclinertant, reference compound] |  |  | 100 % of 5b and 100 ± 3 % of 5b and 100 ± 15 % of 5b |  |  | 
 |  | COc1ccc(-c2cc(C(=O)N[C@H](C(=O)O)C3CCCCC3)nn2-c2ccnc3cc(Cl)ccc23)c(OC)c1 [16b, (2S)-({[1-(7-Chloroquinolin-4-yl)-5-(2,4-dimethoxyphenyl)-1H-pyrazol-3-yl]carbonyl}-amino)-(cyclohexyl)ethanoic Acid] | 1580 ± 505 nM |  | 12 ± 3 % of 5b | 382 ± 33 nM |  | 

Source: US20170174633A1 (RESEARCH TRIANGLE INSTITUTE, priority 2014, published 2017)
